Test [1] concerns the target human TYK2 (JH2domain-pseudokinase) (Homo sapiens (Human), UniProt P29597). The experiment in a line: TYK2 JH2 Domain Binding Assay (KINOMEscan). The procedure, abridged: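 Pseudokinase domain binding was measured by qPCR of tagged, bead-retained kinase after 1 h room-temperature competition, with 0.9% DMSO and compound up to 30,000 nM in 3-fold steps. Hill-equation Kd, duplicate.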

In test [2] the target is Tyk2 kinase domain (DH1) (Homo sapiens (Human), UniProt P29597). The test can be described thus: Tyk2 Radioactive Kinase Assay. The conditions noted are these: for inhibition at 10 µM: read-out: Tyk2 JH1% Inhibition @ 10 μM. It counts as biochemical. The procedure, abridged: (§1)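 Compounds were tested at a single concentration of 10 μM in a radiometric kinase format against each isolated kinase domain. Activity is reported as percent inhibition at that concentration.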
Sequence of Tyk2 kinase domain (DH1) (P29597 897-1176): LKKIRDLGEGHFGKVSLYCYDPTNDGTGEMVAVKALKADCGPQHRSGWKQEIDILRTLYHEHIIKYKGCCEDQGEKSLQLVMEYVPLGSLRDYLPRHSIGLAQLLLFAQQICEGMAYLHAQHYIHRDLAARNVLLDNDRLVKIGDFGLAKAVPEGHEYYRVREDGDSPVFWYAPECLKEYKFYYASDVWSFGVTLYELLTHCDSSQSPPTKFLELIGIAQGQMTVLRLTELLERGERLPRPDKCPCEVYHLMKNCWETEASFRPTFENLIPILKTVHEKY

Test [3] addresses JAK2 kinase domain (JH1) (Homo sapiens (Human), UniProt O60674). The experiment in a line: JAK2 Radioactive Kinase Assay. Type of test: biochemical. The conditions noted are these: for inhibition at 10 µM: read-out: JAK2 JH1% Inhibition @ 10 μM. The method in brief: as §1

Molecules are shown by their SMILES. pKd: −log10 of the molar value. Read-outs that look alike come from different tables or passages of the source. Bounds are passed on as bounds.

Sequence of JAK2 kinase domain (JH1) (O60674 849-1124): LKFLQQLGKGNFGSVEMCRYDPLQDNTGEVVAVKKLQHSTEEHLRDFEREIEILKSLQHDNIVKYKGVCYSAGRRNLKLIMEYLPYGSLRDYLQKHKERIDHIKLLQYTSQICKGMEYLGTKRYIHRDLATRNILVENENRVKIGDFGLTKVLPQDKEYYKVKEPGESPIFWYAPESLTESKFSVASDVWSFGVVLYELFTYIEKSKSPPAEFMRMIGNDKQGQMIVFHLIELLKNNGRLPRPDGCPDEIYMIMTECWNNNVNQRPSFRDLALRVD
Sequence of human TYK2 (JH2domain-pseudokinase) (P29597 556-888): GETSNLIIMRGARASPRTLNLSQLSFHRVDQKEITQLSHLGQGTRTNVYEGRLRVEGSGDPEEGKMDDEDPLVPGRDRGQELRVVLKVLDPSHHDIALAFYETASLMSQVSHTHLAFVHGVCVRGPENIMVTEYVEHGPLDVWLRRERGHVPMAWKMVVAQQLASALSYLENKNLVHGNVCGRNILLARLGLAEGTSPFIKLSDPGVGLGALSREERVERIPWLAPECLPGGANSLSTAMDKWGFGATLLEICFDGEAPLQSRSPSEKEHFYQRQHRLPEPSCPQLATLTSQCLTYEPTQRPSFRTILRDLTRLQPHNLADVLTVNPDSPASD

In the case of `CNc1cc(Nc2cccnc2OC)nc2c(C(=O)N[C@H]3CC[C@@]3(C)O)cnn12` [I-1015, N-((1S,2R)-2-hydroxy-2-methylcyclobutyl)-5-((2-methoxypyridin-3-yl)amino)-7-(methylamino)pyrazolo[1,5-a]pyrimidine-3-carboxamide], the pKd in test [1] was 8.00 to 9.00. In addition, the inhibition at 10 µM in test [2] (10 μM compound, 10 μM ATP) was < 50%; in test [3] (10 μM compound, 10 μM ATP), < 50%.
`CNc1cc(Nc2ccc3c(n2)CCO3)nc2c(C(=O)N[C@H]3C[C@H]3F)cnn12` [I-632]: the pKd in test [1] is > 9.70. The inhibition at 10 µM in test [2] (compound at 10 μM, ATP 10 μM) was < 50%; in test [3] (compound at 10 μM, ATP 10 μM) it was < 50%.
As to `CNc1cc(Nc2cccn([C@H]3CCN(CCF)C3)c2=O)nc2c(C(=O)N[C@@H]3C[C@@H]3F)cnn12` [I-934], the pKd in test [1] was > 9.70. Moreover, the inhibition at 10 µM in test [2] (10 μM compound, 10 μM ATP) is < 50%; in test [3] (10 μM compound, 10 μM ATP), < 50%.
As to `CNc1cc(Nc2cccn3cnnc23)nc2c(C(=O)NC3CC3)cnn12` [I-659], the pKd in test [1] was > 9.70. The inhibition at 10 µM was < 50% in test [2] (compound at 10 μM, ATP 10 μM) and < 50% in test [3] (compound at 10 μM, ATP 10 μM).
Compound `CNc1cc(Nc2cccc(C3CCCCO3)n2)nc2c(C(=O)NC3CC3)cnn12` (stereo in doubt) [I-463, (R)—N-cyclopropyl-7-(methylamino)-5-((6-(tetrahydro-2H-pyran-2-yl)pyridin-2-yl)amino) pyrazolo[1,5-a]pyrimidine-3-carboxamide] had a pKd in test [1] of 9.00 to 9.70. Also, the inhibition at 10 µM in test [2] (compound at 10 μM, ATP 10 μM) was < 50%; in test [3] (compound at 10 μM, ATP 10 μM) it was 50 to 70%.
In the same order, the values of `CNc1cc(Nc2cccnc2OC)nc2c(C(=O)NCCC(C)(C)O)cnn12` [I-420, N-(3-hydroxy-3-methylbutyl)-5-((2-methoxypyridin-3-yl)amino)-7-(methylamino)pyrazolo[1,5-a]pyrimidine-3-carboxamide] are 9.00 to 9.70, < 50% and < 50%.
Take `CNc1cc(Nc2cccn([C@@H]3CCCOC3)c2=O)nc2c(C(=O)N[C@H]3CC[C@@H]3O)cnn12` [I-698]: the pKd in test [1] was > 9.70. The inhibition at 10 µM is < 50% in test [2] (compound at 10 μM, ATP 10 μM) and < 50% in test [3] (compound at 10 μM, ATP 10 μM).
Turning to `CNc1cc(Nc2cc(C)cn(-c3cnn(C4CC4)c3C)c2=O)nc2c(C(N)=O)cnn12` [I-114], the pKd in test [1] is 8.00 to 9.00. The inhibition at 10 µM is < 50% in test [2] (compound at 10 μM, ATP 10 μM) and < 50% in test [3] (compound at 10 μM, ATP 10 μM).
`CNc1cc(Nc2cccn([C@H]3CCN(CCC#N)C3)c2=O)nc2c(C(=O)N[C@@H]3C[C@@H]3F)cnn12` [I-986]: the pKd in test [1] was > 9.70. Also, the inhibition at 10 µM in test [2] (10 μM compound, 10 μM ATP) is < 50%; in test [3] (10 μM compound, 10 μM ATP), < 50%.
Take `CNc1cc(Nc2cccn(-c3cccc(F)c3)c2=O)nc2c(C(=O)NC[C@@H](C)CO)cnn12` [I-1033]: the pKd in test [1] was > 9.70. Further, the inhibition at 10 µM is < 50% in test [2] (10 μM compound, 10 μM ATP) and < 50% in test [3] (10 μM compound, 10 μM ATP).
As for `CNc1cc(Nc2cccn(-c3cccc(C)n3)c2=O)nc2c(C(=O)NC3CC3)cnn12` [I-237], in test [1], the pKd is > 9.70. For the same compound, the inhibition at 10 µM is < 50% in test [2] (compound at 10 μM, ATP 10 μM) and < 50% in test [3] (compound at 10 μM, ATP 10 μM).
Take `CNc1cc(Nc2cccn(C3CCCN(CCC#N)C3)c2=O)nc2c(C(=O)N[C@@H]3C[C@@H]3F)cnn12` (stereo partly drawn) [I-912]: the negative-log Kd (pKd) in test [1] is 9.00 to 9.70. Also, the inhibition at 10 µM in test [2] (10 μM compound, 10 μM ATP) was < 50%; in test [3] (10 μM compound, 10 μM ATP), < 50%.
In turn, `CNc1cc(-c2nn(CCN3CCOCC3)c3ncccc23)nc2c(C(=O)N[C@H]3C[C@H]3F)cnn12` [I-456] had a pKd in test [1] of 8.00 to 9.00. Further, the inhibition at 10 µM was < 50% in test [2] (compound at 10 μM, ATP 10 μM) and < 50% in test [3] (compound at 10 μM, ATP 10 μM).
Regarding `CNc1cc(Nc2cc(Cl)cn(C3CCOCC3)c2=O)nc2c(C(=O)N[C@@H]3CC[C@@H]3O)cnn12` [I-713], the pKd in test [1] is > 9.70. Further, the inhibition at 10 µM in test [2] (compound at 10 μM, ATP 10 μM) was < 50%; in test [3] (compound at 10 μM, ATP 10 μM), < 50%.
As to `CNc1cc(Nc2cccn(C3CCN(CCF)CC3)c2=O)nc2c(C(=O)N[C@H]3CC[C@@H]3O)cnn12` [I-899], the pKd in test [1] is > 9.70. Further, the inhibition at 10 µM was < 50% in test [2] (10 μM compound, 10 μM ATP) and < 50% in test [3] (10 μM compound, 10 μM ATP).
For the compound `CNc1cc(Nc2cccn([C@H]3CC[C@@H](OC)CC3)c2=O)nc2c(C(=O)NC3CCC3)cnn12` [I-358], the pKd in test [1] was > 9.70. Further, the inhibition at 10 µM in test [2] (compound at 10 μM, ATP 10 μM) was < 50%; in test [3] (compound at 10 μM, ATP 10 μM), < 50%.
Compound `CNc1cc(Nc2cccc(-c3cn(C)nc3F)n2)nc2c(C(=O)N[C@@H]3CC[C@@H]3O)cnn12` [I-949] gave a pKd in test [1] of 8.00 to 9.00. The inhibition at 10 µM was < 50% in test [2] (10 μM compound, 10 μM ATP) and < 50% in test [3] (10 μM compound, 10 μM ATP).
Take `CNc1cc(Nc2cccn([C@H]3CCC[C@@H](OC)C3)c2=O)nc2c(C(=O)N[C@@H]3C[C@@H]3F)cnn12` [I-795]: the pKd in test [1] is > 9.70. The inhibition at 10 µM in test [2] (compound at 10 μM, ATP 10 μM) was < 50%; in test [3] (compound at 10 μM, ATP 10 μM), < 50%.
`CNc1cc(Nc2cccc(N3CCOC3=O)n2)nc2c(C(N)=O)cnn12` [I-65]: the pKd in test [1] was > 9.70. Also, the inhibition at 10 µM in test [2] (compound at 10 μM, ATP 10 μM) is < 50%; in test [3] (compound at 10 μM, ATP 10 μM), < 50%.
For `CNc1cc(Nc2cccc3ocnc23)nc2c(C(=O)NCC3(CO)CC3)cnn12` [I-749], the negative logarithm of the Kd (pKd) in test [1] is > 9.70. The inhibition at 10 µM is < 50% in test [2] (compound at 10 μM, ATP 10 μM) and < 50% in test [3] (compound at 10 μM, ATP 10 μM).
The compound `CNc1cc(Nc2cccn([C@H]3CC[C@@H]3O)c2=O)nc2c(C(=O)NC3CC3)cnn12` [I-801] gave a negative logarithm of the Kd (pKd) in test [1] of 9.00 to 9.70. The inhibition at 10 µM in test [2] (compound at 10 μM, ATP 10 μM) was < 50%; in test [3] (compound at 10 μM, ATP 10 μM), < 50%.
In the case of `CNc1cc(Nc2cccnc2OC)nc2c(C(=O)N[C@H]3CC[C@H](O)C3)cnn12` [I-487], the pKd in test [1] is > 9.70. Further, in test [2] (compound at 10 μM, ATP 10 μM), the “Tyk2 JH1% Inhibition @ 10 μM” value is given as “A (percent inhibition at 10 μM lower than 50)”. Moreover, the “JAK2 JH1% Inhibition @ 10 μM” value in test [3] (compound at 10 μM, ATP 10 μM) is given as “A (percent inhibition at 10 μM lower than 50)”.
As to `CNc1cc(Nc2cc(Cl)cn(C3CCN(C)CC3)c2=O)nc2c(C(=O)N[C@H]3CC[C@@H]3O)cnn12` [I-931], in test [1], the pKd was > 9.70. Also, the inhibition at 10 µM in test [2] (10 μM compound, 10 μM ATP) is < 50%; in test [3] (10 μM compound, 10 μM ATP) it was < 50%.
As to `CNc1cc(Nc2cccn([C@H]3CCC[C@H](OC)C3)c2=O)nc2c(C(=O)N[C@@H]3C[C@@H]3F)cnn12` [I-882], the pKd in test [1] was > 9.70. Besides, the inhibition at 10 µM was < 50% in test [2] (10 μM compound, 10 μM ATP) and < 50% in test [3] (10 μM compound, 10 μM ATP).
As to `CNc1cc(Nc2cccn([C@H]3CC[C@H]3O)c2=O)nc2c(C(=O)NC3CC3)cnn12` [I-956], the pKd in test [1] is > 9.70. Also, the “Tyk2 JH1% Inhibition @ 10 μM” value in test [2] (10 μM compound, 10 μM ATP) is “A (percent inhibition at 10 μM lower than 50)”. The “JAK2 JH1% Inhibition @ 10 μM” value in test [3] (10 μM compound, 10 μM ATP) is recorded as “A (percent inhibition at 10 μM lower than 50)”.
As for `CNc1cc(Nc2cccn(C3CCN(CCF)CC3)c2=O)nc2c(C(=O)NCC3(CO)CC3)cnn12` [I-846], the pKd in test [1] was > 9.70. The inhibition at 10 µM is < 50% in test [2] (10 μM compound, 10 μM ATP) and < 50% in test [3] (10 μM compound, 10 μM ATP).
Consider `CNc1cc(Nc2cccn(-c3ccc(C4CC4)nn3)c2=O)nc2c(C(=O)NC3CC3)cnn12` [I-241], for which the pKd in test [1] is > 9.70. Also, the inhibition at 10 µM in test [2] (compound at 10 μM, ATP 10 μM) is < 50%; in test [3] (compound at 10 μM, ATP 10 μM) it was < 50%.
In turn, `CNc1cc(Nc2cccn(CCOC3CC3)c2=O)nc2c(C(=O)N[C@H]3CC[C@@H]3O)cnn12` [I-514, 5-((1-(2-cyclopropoxyethyl)-2-oxo-1,2-dihydropyridin-3-yl)amino)-N-((1 S,2S)-2-hydroxycyclobutyl)-7-(methylamino)pyrazolo[1,5-a]pyrimidine-3-carboxamide] gave a pKd in test [1] of 8.00 to 9.00. Also, the inhibition at 10 µM is < 50% in test [2] (compound at 10 μM, ATP 10 μM) and < 50% in test [3] (compound at 10 μM, ATP 10 μM).

Values taken from US10508120B2, “TYK2 inhibitors and uses thereof” (Nimbus Lakshmi, Inc., priority 2017, dated 2019).
